Reference: patent publication US20040235086A1, “Detection of cellular contaminants in samples of non-living material” (priority 2001, published 2004)

Key:
Hepatocyte cells = assay: Microcalorimetric detection of heat production on uncoupling of oxidative phosphorylation in hepatocytes; type: cell-based
Procedure: Hepatocyte cells were grown on 37 degrees Celsius with 5% CO2, Rinsed with Versene, then loosened with EDTA-trypsine and washed with PBS. Concentration was 1,88. 10e7 cells/ml or about 28 000 cells in a well.
The uncoupler CCCF was dissolved in DMSO to a stock concentration of 100 mM, the diluted to 10 mM again in DMSO, and a final working concentration of 400 μM was diluted in H2O.
A sample of hepatocytes was introduced in the adjoining recipients (hereinafter referred to as top and bottom well) of a microcalorimeter. The thermopile, which is located between the two recipients allows the measurement of a minute temperature difference between the samples in each recipient by measuring a voltage difference. Sensitivity was determined to be 15 mV/K (10.7 V/W). The following procedure was used:
adding of 1.5 μl of hepatocyte solution was added to the top and bottom well of the microcalorimeter
0.5 μl of a 100 μM solution of uncoupler was added to the bottom well, while the same volume of the buffer solution was added to the top well
At its maximum (reached after 10 min), the voltage difference between the two wells was recorded. From this value, the temperature difference and the heat production difference could be determined.

[1] = tested on: Escherichia coli bacteria
Procedure: The presence of living cells, including bacterial cells, in a sample can be detected by addition of hydrogen peroxide which will be degraded by catalase activity present in the cells, which causes heat production.
Escherichia coli bacteria were grown on 37° Celsius in Liquid Broth. Samples of bacteria are taken when growth is in the log fase and is estimated to be around 4.10e8 bacteria/ml, which corresponds to around 600 000 bacteria per well.
A 30% (w/w) hydrogen peroxide solution from Sigma was used directly.
Measurements were performed using a microcalorimeter. The top well was provided with 1.5 μl of the bacterial solution in LB, while the bottom well contained 1.5 μl LB only.
When a steady baseline was obtained (10 min) 0.5 μl of the hydrogen peroxide solution was added to each of the wells.

Row | Structure (SMILES) | maximum voltage difference between the two wells (Hepatocyte cells; 0.5 μl of 100 μM uncoupler solution added to 1.5 μl hepatocyte solution (about 28 000 cells/well), maximum reached after 10 min, vs buffer well) [μV] | heat production difference per cell (Hepatocyte cells; hepatocytes, based on number of cells added to each well) [nW] | temperature difference (voltage difference divided by sensitivity of the microcalorimeter) (Hepatocyte cells; hepatocytes, uncoupler well vs buffer well, sensitivity 15 mV/K) [mK] | maximum temperature difference ([1]; 0.5 μl of 30% (w/w) hydrogen peroxide added to 1.5 μl E. coli in LB (around 600 000 bacteria per well) vs LB only) [mK] | total enthalpy change ([1]; calculated from Tmax=ΔH/2C, heat capacity 10 mJ/K after addition of hydrogen peroxide) [mJ]
1 | N#CC(C#N)=NNc1cccc(Cl)c1 [CCCF, carbonylcyanide-3-chlorophenylhydrazone] | 800 | 3 | 50 |  | 
2 | OO [hydrogen peroxide] |  |  |  | 400 | 80
